Key:
mice = assay: Muscle fatigue test (swimming endurance); format: in vivo; conditions: for swimming endurance time (in words): daily oral 200 mg/kg over 6 days, versus controls; for Swimming time: daily oral doses of 200 mg/kg of each compound over 6 days preceding the test
Procedure: The method described by Zheng (Zheng R. L., Acta Pharmacol. Sinica, 14, 47, 1993) was used for this test in order to observe whether the administration of L-carnitine or creatinol-phosphate or of the two products in combination might increase […] in treated animals as compared to controls.
In this test, different groups of mice received daily oral doses of 200 mg/kg of L-carnitine or 200 mg/kg of creatinol-phosphate or of the two compounds in combination over the 6-day period preceding the test. The animals were immersed in a tank full of water and swimming endurance time was measured.

gastrocnemius muscle = assay: Forced muscular exercise test (treadmill), MDA content in gastrocnemius muscle; format: in vivo; conditions: rats, daily oral 200 mg/kg of each compound for 6 days; for MDA content in muscle, After 5 min: gastrocnemius muscle 5 min after end of treadmill test; for MDA content in muscle, After 30 min: gastrocnemius muscle 30 min after end of treadmill test
Excerpt: As is known, forced muscular exercise can produce structural and inflammatory-type lesions at muscle fibre level, due to the increased oxygen consumption and to production of reactive oxygen species (ROS). A marker of the level of ROS-induced lipid peroxidation of the muscle may be obtained from its malondialdehyde (MDA) concentration. For this test, the method described by Husain was used (Husain K., Pathophysiology, 4, 69, 1997) as modified by Li (Li J.X., Acta Pharmacologica Sinica, 20, 126, 1999) which consists essentially in examining rats on a treadmill at controlled belt speed and preset inclination. In this way the rats were made to run at a belt speed of 28 m/min and an inclination of approximately 5°. Exhaustion of the control animals subjected to the exercise occurred after approximately 90 minutes.
The test was performed on rats receiving daily oral treament over the 6-day period preceding the test with 200 mg/kg of L-carnitine or with 200 mg/kg of creatinol-phosphate or with the two compounds in combination.
Five minutes and 30 minutes, respectively, after the end of the test, the animals were sacrificed and samples of gastrocnemius muscle were taken for measurement of the malondialdehyde (MDA) content using the reaction with thiobarbituric acid according to the method described by Ohkawa (Ohkawa H. Angl. Biochem 95, 351, 1979).

SMILES | swimming endurance time (in words) (mice) | Swimming time (mice) | MDA content in muscle, After 5 min (gastrocnemius muscle) | MDA content in muscle, After 30 min (gastrocnemius muscle)
C[N+](C)(C)C[C@H](O)CC(=O)[O-] [L-carnitine] | increased swimming endurance time | 118 ± 14 min | 218 ± 11 nmol/g | 216 ± 14 nmol/g
CN(CCOP(=O)(O)O)C(=N)N [Creatinol-phosphate, 1-(2-hydroxyethyl)-1-methylguanidine-O-phosphate] | increased swimming endurance time | 124 ± 11 min | 206 ± 16 nmol/g | 209 ± 12 nmol/g
